According to paper PMC9386018, “A lymphatic-absorbed multi-targeted kinase inhibitor for myelofibrosis therapy” (Nature Communications, 2022):
Values joined by “and” are separate entries in the source; they are usually repeats but may differ in a detail not shown here. Identical values can stand only once.

Experiments:
[1] = system: phosphorylated AKT (pAKT; pS473) in SET-2 cells; assay: Phospho-flow cytometry of pAKT in SET-2 cells; type: cell-based, human; conditions: 5 μM, 16 h
Description: (§1) The human megakaryoblastic cell line, SET-2 (ATCC), was maintained in RPMI 1640 supplemented with 20% FBS and incubated for 16 h at 10^6 cells mL^−1 with LP-182 or vehicle (DMSO; dimethyl sulfoxide), then washed in ice-cold PBS, and collected for flow cytometry analysis. Single-cell suspensions of mouse spleen were prepared from MPL^W515L MF mice (below) in RPMI 1640 supplemented with 5% FCS. Red blood cells were lysed by ammonium chloride-mediated red cell lysis (RCL) buffer and passed through a nylon mesh, and then cells were counted. For intracellular phospho-protein staining, SET-2 or spleen cells were fixed and then permeabilized using BD Phospho-flow fixation buffer and Perm-Buffer III (BD biosciences) according to the manufacturer’s protocol. Intracellular phospho-protein staining was performed using fluorochrome-conjugated antibodies, pAKT (pS473)-Alexa Fluor 647 (MB89-61) or pERK1/2 (pT202/pY204)-Alexa Fluor 647 (20 A). All phospho-flow antibodies were purchased from BD Biosciences. […] Flow cytometry was performed on a FACS Fortessa (Becton, Dickinson and Co.) using FACSDiVa software, and data analyzed using FlowJo software (Tree Star). […]

[2] = system: pAKT (pS473) in splenocytes; assay: MPL^W515L MF mouse model: pAKT in splenocytes by flow cytometry; type: in vivo; conditions: MPL^W515L mice, oral 400 mg kg^−1 daily, 28 d
Description: as §1, with “A).” for “A). All phospho-flow antibodies were purchased from BD Biosciences.”
Generation of the MPL^W515L mutant MF mouse model was similar to previously described methods. […] Development of MF was evaluated by spleen volumes using MRI beginning ~14 d following bone marrow transplantation (BMT) as outlined below, continuing weekly until end of the study. […]

MEK1 = MEK1 (Homo sapiens, UniProt Q02750); assay: Target kinase 10-point inhibition assay, MEK1; type: biochemical; conditions: replicates
Excerpt: The average percent kinase inhibition from replicate data was ranked low to high, converted to a compatible identifier format, then input into Coral Human Kinome Visualization software for presentation analysis. […] Scaling of evolutionary distance for PI kinases is only relative and is based on literature analysis[62],[63]. Average percent kinome inhibition values from replicate data are supplied in Source Data file. […] Corrected data was normalized to vehicle treated control values, and dose response percent kinase activity was analyzed by non-linear regression for determination of IC50 values.

MEK1, sequence (Q02750 whole entry): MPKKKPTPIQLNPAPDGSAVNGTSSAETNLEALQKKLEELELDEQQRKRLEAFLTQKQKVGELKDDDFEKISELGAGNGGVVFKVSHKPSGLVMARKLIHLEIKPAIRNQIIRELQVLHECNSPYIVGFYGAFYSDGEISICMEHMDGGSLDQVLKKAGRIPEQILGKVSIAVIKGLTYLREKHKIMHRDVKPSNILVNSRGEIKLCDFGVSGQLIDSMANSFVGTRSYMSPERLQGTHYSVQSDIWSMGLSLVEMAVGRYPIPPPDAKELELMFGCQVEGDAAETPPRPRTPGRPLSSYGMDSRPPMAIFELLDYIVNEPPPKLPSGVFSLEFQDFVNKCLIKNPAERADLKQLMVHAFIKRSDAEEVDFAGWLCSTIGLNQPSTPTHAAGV

SMILES: O=C(NOCCOCCOCCOCCC(=O)N1CCN(c2cnc3ccc(-c4cnc(Cl)c(NS(=O)(=O)c5ccc(F)cc5)c4)cc3n2)CC1)c1ccc(F)c(F)c1Nc1ccc(I)cc1F [LP-182, N-(2-(2-(2-(3-(4-(7-(6-chloro-5-((4-fluorophenyl)sulfonamido)pyridin-3-yl)quinoxalin-2-yl)piperazin-1-yl)-3-oxopropoxy)ethoxy)ethoxy)ethoxy)-3,4-difluoro-2-((2-fluoro-4-iodophenyl)amino)benzamide]
- decrease of downstream activation of AKT [1]: ~ 50%
- active AKT level in splenocytes [2]: reduced active AKT and ERK1/2 levels to those comparable to healthy control mice
- activity at 0.000495 µM (MEK1; MEK1, 0.495 nM): 91%
- Kinase Activity (%) (MEK1; MEK1, 0.495 nM, 0.000495 µM): 94% and 100% (2×) and 98% (2×) and 87%
- activity at 0.00152 µM (MEK1; MEK1, 1.52 nM): 89%
- Kinase Activity (%) (MEK1; MEK1, 1.52 nM, 0.00152 µM): 94% (2×) and 102% (2×)
- activity at 0.00457 µM (MEK1; MEK1, 4.57 nM): 92%
- Kinase Activity (%) (MEK1; MEK1, 4.57 nM, 0.00457 µM): 77% and 86% and 84% and 81%
- Kinase Activity (%) (MEK1; MEK1, 41.2 nM, 0.0412 µM): 47% and 49% and 69% and 72% and 79% and 86% and 76% and 73%
- Kinase Activity (%) (MEK1; MEK1, 123 nM, 0.123 µM): 26% and 22% and 46% and 50% and 53% and 57% and 54% and 49%
- Kinase Activity (%) (MEK1; MEK1, 1110 nM, 1.11 µM): 0% and 3% (3×) and 8% (2×) and 9% (2×) and 5% and 12%
- Kinase Activity (%) (MEK1; MEK1, 3330 nM, 3.33 µM): -1% and 1% (2×) and 2% (2×) and 3% (3×) and 4% and 0%
- Kinase Activity (%) (MEK1; MEK1, 10000 nM, 10 µM): 0% and -2% (2×) and 8% and 9% and 4% and 2% and -1% and 3% (2×)
- activity at 0.000495 µM (MEK1; MEK1, concentration 0.495 nM): 90%
- Kinase Activity (%) (MEK1; MEK1, concentration 0.495 nM, 0.000495 µM): 100% (2×) and 98% (2×)
- activity at 0.00152 µM (MEK1; MEK1, concentration 1.52 nM): 99%
- Kinase Activity (%) (MEK1; MEK1, concentration 1.52 nM, 0.00152 µM): 94% (2×) and 102% (2×)
- activity at 0.00457 µM (MEK1; MEK1, concentration 4.57 nM): 95%
- activity at 0.0412 µM (MEK1; MEK1, concentration 41.2 nM): 65%
- activity at 0.123 µM (MEK1; MEK1, concentration 123 nM): 43%
- activity at […] (MEK1; MEK1, concentration 370 nM): 15%
- Kinase Activity (%) (MEK1; MEK1, concentration 1110 nM, 1.11 µM): 9% (2×) and 3% (3×) and 8% (2×)
- Kinase Activity (%) (MEK1; MEK1, concentration 3330 nM, 3.33 µM): 2% (2×) and 1% (2×) and 3% (3×)
- Kinase Activity (%) (MEK1; MEK1, concentration 10000 nM, 10 µM): 3% (2×) and -2% (2×)
